Source: patent US20250268897A1, “USE OF HETEROCYCLIC COMPOUND IN TREATING DISEASES RELATED TO KINASE DRUG-RESISTANT MUTATION AND METHOD THEREFOR” (Sichuan Kelun-Biotech Biopharmaceutical Co., Ltd., priority 2021, published 2025)
One block for each molecule: values may come before it.

Experiments:
[1] = tested on: Ba/F3 KIF5B-RET^G810R subcutaneous tumour; experiment: In vivo efficacy in BALB/c Nude mouse model with Ba/F3 KIF5B-RET^G810R subcutaneous tumour; details: 30 mg/kg, PO, BID × 12
RET-G810R enzyme = RET-G810R enzyme (Homo sapiens (Human), UniProt P07949, G810R); experiment: RET inhibition experiment, HTRF KinEASE-TK kit, RET-G810R; type: biochemical; details: for IC50: Table 2
RET-G810S enzyme = RET-G810S enzyme (Homo sapiens (Human), UniProt P07949, G810S); experiment: RET inhibition experiment, HTRF KinEASE-TK kit, RET-G810S; type: biochemical; details: for Inhibition rate on RET-G810S (%) / inhibition at 0.3 µM: compound concentration 300 nM; for inhibition at 0.3 µM: read-out: Inhibition rate on RET-G810S (%); for IC50: Table 4
RET-G810C enzyme = RET-G810C enzyme (Homo sapiens (Human), UniProt P07949, G810C); experiment: RET inhibition experiment, HTRF KinEASE-TK kit, RET-G810C; type: biochemical; details: for IC50: Table 6
Sequence of RET-G810C enzyme (P07949 29-1114 G810C): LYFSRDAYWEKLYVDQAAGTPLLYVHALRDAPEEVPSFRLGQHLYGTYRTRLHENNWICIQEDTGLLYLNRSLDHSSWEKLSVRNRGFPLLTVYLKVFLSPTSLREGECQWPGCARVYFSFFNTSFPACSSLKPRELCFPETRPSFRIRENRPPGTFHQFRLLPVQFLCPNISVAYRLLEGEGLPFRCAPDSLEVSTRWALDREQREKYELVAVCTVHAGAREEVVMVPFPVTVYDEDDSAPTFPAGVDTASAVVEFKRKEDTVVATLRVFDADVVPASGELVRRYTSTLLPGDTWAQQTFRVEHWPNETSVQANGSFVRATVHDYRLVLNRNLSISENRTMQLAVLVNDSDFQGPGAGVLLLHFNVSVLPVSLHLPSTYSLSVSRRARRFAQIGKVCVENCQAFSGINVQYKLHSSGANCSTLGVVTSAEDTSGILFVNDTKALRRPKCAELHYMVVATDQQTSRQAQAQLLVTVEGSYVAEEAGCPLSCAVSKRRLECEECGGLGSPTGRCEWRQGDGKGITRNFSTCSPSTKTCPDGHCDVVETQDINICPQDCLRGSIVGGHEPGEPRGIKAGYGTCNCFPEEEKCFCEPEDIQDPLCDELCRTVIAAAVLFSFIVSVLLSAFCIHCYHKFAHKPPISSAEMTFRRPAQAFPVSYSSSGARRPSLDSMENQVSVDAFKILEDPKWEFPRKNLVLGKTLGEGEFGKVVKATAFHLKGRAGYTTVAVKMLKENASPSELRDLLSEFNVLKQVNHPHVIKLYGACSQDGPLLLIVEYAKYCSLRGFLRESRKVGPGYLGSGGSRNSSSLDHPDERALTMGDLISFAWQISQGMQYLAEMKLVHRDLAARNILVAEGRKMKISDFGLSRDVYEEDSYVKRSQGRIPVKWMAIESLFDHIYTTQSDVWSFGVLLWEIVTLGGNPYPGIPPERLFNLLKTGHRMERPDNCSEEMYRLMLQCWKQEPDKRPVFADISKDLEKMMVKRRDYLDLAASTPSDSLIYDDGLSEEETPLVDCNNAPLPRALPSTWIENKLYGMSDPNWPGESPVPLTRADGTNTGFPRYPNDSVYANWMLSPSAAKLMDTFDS

Sequence of RET-G810R enzyme (P07949 29-1114 G810R): as the sequence (P07949 29-1114 G810C) above, with C782R counted along it
Sequence of RET-G810S enzyme (P07949 29-1114 G810S): as the sequence (P07949 29-1114 G810C) above, with C782S counted along it

SMILES: CO[C@]1(C(=O)N[C@@H](C)c2ccc(-n3cc(F)cn3)nc2)CC[C@H](c2nc(C)cc(Nc3cc(C)[nH]n3)n2)CC1 [BLU-667, Pralsetinib]
TGI (%) tumour growth inhibition rate [1]: 29.78% | VP12 (mm^3, mean ± SEM): tumour volume on Day 12 of administration [1]: 552.89 ± 29.7 mm^3 | VP-1 (mm^3, mean ± SEM): tumour volume one day before administration ([1]; baseline of the group): 101.82 ± 5.93 mm^3

SMILES: Cc1cc(Nc2cc(C)[nH]n2)nc(-c2ccc(N3CC4CC(C3)N4Cc3ccc(-n4cccn4)nc3)nc2)n1 [Compound 5]
IC50 (RET-G810R enzyme): 185 nM | Inhibition rate on RET-G810S (%) (RET-G810S enzyme): 97.89 ± 0.57%

Inhibition rate on RET-G810R (%) (RET-G810R enzyme; compound concentration 300 nM): 77.16 ± 3.87% | Inhibition rate on RET-G810S (%) (RET-G810S enzyme): 83.01 ± 1.42%
SMILES: Cc1cc(Nc2cc(C)[nH]n2)nc(-c2ccc(N3CC4CC(C3)N4Cc3ccc(-n4cccn4)cc3)nc2)n1 [Compound 6]

SMILES: Cc1cc(Nc2cc(C)[nH]n2)nc(-c2ccc(N3CC4CC(C3)N4Cc3ccc(-n4cc(Cl)cn4)nc3)nc2)n1 [Compound 9, 2-(6-(6-((6-(4-chloro-1H-pyrazol-1-yl)pyridin-3-yl)methyl)-3,6-diazabicyclo [3.1.1]heptan-3-yl)pyridin-3-yl)-6-methyl-N-(5-methyl-1H-pyrazol-3-yl) pyrimidin-4-amine]
inhibition at 0.3 µM (RET-G810R enzyme; compound concentration 300 nM, read-out: Inhibition rate on RET-G810R (%)): 78.6 ± 4.5% | inhibition at 0.3 µM (RET-G810S enzyme): 97.64 ± 0.19%

Inhibition rate on RET-G810R (%) (RET-G810R enzyme; compound concentration 300 nM): 72.78 ± 1.58% | Inhibition rate on RET-G810S (%) (RET-G810S enzyme): 88.46 ± 2.23%
SMILES: Cc1cc(Nc2cc(C)[nH]n2)nc(-c2ccc(N3CC4CC(C3)N4Cc3ccc(-n4cnc(F)c4)nc3)nc2)n1 [Compound 10]

Inhibition rate on RET-G810R (%) (RET-G810R enzyme; compound concentration 300 nM): 69.44 ± 0.31% | Inhibition rate on RET-G810S (%) (RET-G810S enzyme): 99.19 ± 0.55% | Inhibition rate on RET-G810C (%) (RET-G810C enzyme; compound concentration 300 nM): 69.10 ± 5.56%
SMILES: Cc1cc(Nc2cc(C)[nH]n2)nc(-c2ccc(N3CC4CC(C3)N4Cc3ccc(-n4cc(C)c(C)n4)nc3)nc2)n1 [Compound 12]

SMILES: Cc1cc(Nc2cc(C)[nH]n2)nc(-c2ccc(N3CC4CC(C3)N4Cc3ccc(-n4cc(F)cn4)nc3)nc2)n1 [Compound 18]
IC50 (RET-G810R enzyme): 132 nM | IC50 (RET-G810S enzyme): 15.9 nM | IC50 (RET-G810C enzyme): 36.3 nM

Inhibition rate on RET-G810S (%) (RET-G810S enzyme): 80.98 ± 7.32% | Inhibition rate on RET-G810C (%) (RET-G810C enzyme; compound concentration 300 nM): 82.80 ± 3.66%
SMILES: Cc1cc(Nc2cc(C)[nH]n2)nc(-c2ccc(N3CC4CC(C3)N4Cc3ccc(-n4nccc4OC4CC4)nc3)nc2)n1 [Compound 19]

Inhibition rate on RET-G810S (%) (RET-G810S enzyme): 96.67 ± 0.03% | Inhibition rate on RET-G810C (%) (RET-G810C enzyme; compound concentration 300 nM): 86.86 ± 1.73%
SMILES: Cc1cc(Nc2cc(C)[nH]n2)nc(-c2ccc(N3CC4CC(C3)N4Cc3ccc(-n4ncc(F)c4C)nc3)nc2)n1 [Compound 20]

SMILES: Cc1cc(Nc2cc(C)[nH]n2)nc(-c2ccc(N3CC4CC(C3)N4Cc3ccc(-c4ccc[nH]4)nc3)nc2)n1 [Compound 21]
IC50 (RET-G810S enzyme): 6.61 nM | IC50 (RET-G810C enzyme): 173 nM

Inhibition rate on RET-G810C (%) (RET-G810C enzyme; compound concentration 300 nM): 84.26 ± 6.82%
SMILES: Cc1cc(Nc2cc(C)[nH]n2)nc(-c2ccc(N3CC4CC(C3)N4Cc3ccc(-n4ncc(F)c4C4CC4)nc3)nc2)n1 [Compound 22]

SMILES: Cc1cc(Nc2cc(C)[nH]n2)nc(-c2ccc(N3CC4CC(C3)N4Cc3ccc(-c4ccc(F)[nH]4)nc3)nc2)n1 [Compound 27]
IC50 (RET-G810S enzyme): 23.1 nM | Inhibition rate on RET-G810C (%) (RET-G810C enzyme; compound concentration 300 nM): 82.66 ± 2.47%

SMILES: Cc1cc(Nc2cc(C)[nH]n2)nc(-c2ccc(N3CC4CC(C3)N4Cc3ccc(-n4cc(F)c(C(C)(C)O)n4)nc3)nc2)n1.O=C(O)/C=C/C(=O)O [Compound 30-A, Fumarate of 2-(4-fluoro-1-(5-((3-(5-(4-methyl-6-((5-methyl-1H-pyrazol-3-yl)amino)pyrimidin-2-yl)pyridin-2-yl)-3,6-diazabicyclo [3.1.1]heptan-6-yl)methyl)pyridin-2-yl)-1H-pyrazol-3-yl) propan-2-ol]
Inhibition rate on RET-G810S (%) (RET-G810S enzyme): 99.01 ± 0.15% | IC50 (RET-G810C enzyme): 125 nM

SMILES: Cc1cc(Nc2cc(C)[nH]n2)nc(-c2ccc(N3CC4CC(C3)N4Cc3cnc(-n4cc(F)cn4)cn3)nc2)n1 [Compound 31, 2-(6-(6-((5-(4-fluoro-1H-pyrazol-1-yl)pyrazin-2-yl)methyl)-3,6-diazabicyclo [3.1.1]hept-3-yl)pyridin-3-yl)-6-methyl-N-(5-methyl-1H-pyrazol-3-yl) pyrimidin-4-amine]
inhibition at 0.3 µM (RET-G810S enzyme): 99.69 ± 0.14% | inhibition at 0.3 µM (RET-G810C enzyme; compound concentration 300 nM, read-out: Inhibition rate on RET-G810C (%)): 74.1 ± 1.28%
